This is an account of results in patent US20140309137A1, “GENE EXPRESSION PROFILES ASSOCIATED WITH LEAN PHENOTYPE AND USES THEREOF” (NESTEC SA, priority 2008, published 2014).

Assay [1] is described as follows: Body composition and body fat analysis after CLA, high protein diet or exercise treatment. Type of assay: in vivo, Sprague Dawley rats. To be noted: rats. The text has this: (§1) Four-week old male Sprague Dawley rats were allowed to acclimate for two weeks on a control diet comprising AIN-93M (American Institute of Nutrition purified diet formula for maintenance of mature rodents). Rats were divided into four groups of 12. Group 1 was fed the control diet supplemented with CLA (Table 1). Group 2 was fed a modified diet increased in protein and decreased in carbohydrate (Table 1). Group 3 was fed the control diet, and was given the opportunity to engage in supplemental exercise. Specifically, a running wheel was placed in the cage of each rat in group 3, and daily use of the wheel was monitored by recording each turn of the wheel using a sensor connected to a computer. Group 4 was fed the control diet (Table 1).
(§2) Measurements were taken at 7 and 60 days after initiation of the feeding or exercise protocols. At the completion of the 60-day feeding protocol, all animals were sacrificed and analyses were performed.
Body composition analyses were performed on the test animals.

The nature of assay [2]: Biochemical analyses of blood (fasting glucose, glucagon, insulin). The class given is in vivo, Sprague Dawley rats. The conditions noted are these: for Fasting blood glucagon / Fasting blood glucose / Fasting blood insulin: rats.
From the text: as §1, §2

Where [3] appears, read: after 60 days, compared with the control diet and the exercise treatment.

Turning to conjugated linoleic acid [CLA], the Body fat entry in assay [1] (60 days, compared with the Control group) is reported as “reduced body fat”. Besides, in assay [1] (following 60 days of treatment), the Retroperitoneal fat was 10.07 g and the Total fat pad was found to be 31.80 g. Besides, in assay [2] (setting [3]), the Blood glucose level entry is reported as “reduced blood glucose level” and the Blood insulin entry is “reduced blood insulin”. In assay [2] (Day 7), this substance returned a Fasting blood glucagon of 111.65 pg/mL, a Fasting blood glucose of 10.53 mmol/L and a Fasting blood insulin of 233.58 pmol/L. In assay [2] (Day 60), this substance yielded a Fasting blood glucagon of 120.77 pg/mL, a Fasting blood glucose of 11.08 mmol/L and a Fasting blood insulin of 172.66 pmol/L.
